Source: patent publication US20090275606A1, “Heterocyclic Compounds as MEK Inhibitors” (Novartis AG, priority 2008, published 2009)

System: A375 cells
Experiment: Cell viability assay in A375 cells (XTT)
Type: cell-based
Conditions: Homo sapiens, A-375, 72 h, three days after compound addition
Experimental: The cell viability assay in A375 cells is set up in a 96-well plate format using XTT.
XTT is a yellow tetrazolium salt that is cleaved to an orange formazan dye by the mitochondria of metabolically active cells. The procedure allows for rapid determination in a microtitre plate, to give reproducible and sensitive results.
A375 cells are grown in DMEM media containing 10% FBS and 1 mM sodium pyruvate. Cells are trypsinized and seeded at 1000 cells/well. After allowing the cells to adhere overnight, compound is added to the wells at the following final concentrations: 10, 3, 1, 0.3, 0.1, 0.03, 0.01, 0.001, and 0.0001 μM. The assay is set up in triplicates for each concentration. DMSO concentrations are kept at 0.5%/well. Three days after compound addition, the XTT assay is performed. Wells are washed once with PBS. 100 μL of DMEM media without phenol red or FBS is added to each well. A working solution of XTT containing 1 mg/ml XTT and 100 μL of PMS (stock concentration 0.383 mg/ml) per 5 ml is prepared. 50 μL of the working solution of XTT is added to each well. Absorbance of the plate is read at 465 nm using a Spectramax 190 (Molecular Devices). The absorbance from wells with media and XTT alone, but without cells is considered the blank and subtracted from readings from all wells.
Percentage viability is calculated considering the blank subtracted value from wells treated with DMSO alone as 100% viable. GI50 values are calculated using Graphpad Prism, using non-linear regression curve fit for sigmoidal dose response (variable slope).
The cell viability assay is further described in Scudiero, et. al., Cancer Research (1988) 48, 4827-4833; Weislow, et. al., J. Natl. Cancer Institute, (1989) 81, 577-586; and Roehm, et. al., J. Immunol. Methods [1991]142:257-265.

## O=C(NOCC1CC1)c1c(Nc2ccc(I)cc2F)c(F)c(=O)n2c1CCC2 [Compound 45]
  GI50: 0.4 nM

## NC(=O)c1c(Nc2ccc(I)cc2F)cc(=O)n2c1CCC2 [Compound 38]
  GI50: 73 nM

## O=C(NOCCO)c1c(Nc2ccc(I)cc2F)cc(=O)n2c1CCC2 [Compound 40]
  GI50: 0.7 nM

## Cc1c(Nc2ccc(Br)cc2F)c(C(=O)NOCCO)c2n(c1=O)CCC2 [Compound 25]
  GI50: 10 nM

## CCONC(=O)c1c(Nc2ccc(I)cc2F)cc(=O)n2c1CCC2 [Compound 42]
  GI50: 3.6 nM

## CONC(=O)c1c(Nc2ccc(I)cc2F)cc(=O)n2c1CCC2 [Compound 41]
  GI50: 9 nM

## CCONC(=O)c1c(Nc2ccc(Br)cc2F)cc(=O)n2c1CCC2 [Compound 10]
  GI50: 40 nM

## Cc1c(Nc2ccc(Br)cc2F)c(C(=O)NOCC2CC2)c2n(c1=O)CCC2 [Compound 24]
  GI50: 36 nM

## O=C(NOCC1CC1)c1c(Nc2ccc(Br)cc2F)c(F)c(=O)n2c1CCC2 [Compound 20]
  GI50: 55 nM

## CONC(=O)c1c(Nc2ccc(Br)cc2F)cc(=O)n2c1CCC2 [Compound 6]
  GI50: 150 nM

## O=C(NOCCO)c1c(Nc2ccc(I)cc2F)c(F)c(=O)n2c1CCC2 [Compound 46]
  GI50: 6.7 nM

## O=C(NOCC1CC1)c1c(Nc2ccc(Br)cc2F)cc(=O)n2c1CCC2 [Compound 4]
  GI50: 14 nM

## CCONC(=O)c1c(Nc2ccc(Br)cc2F)c(C)c(=O)n2c1CCC2 [Compound 27]
  GI50: 60 nM

## O=C(NOCC1CC1)c1c(Nc2ccc(I)cc2F)cc(=O)n2c1CCC2 [Compound 39]
  GI50: 0.8 nM
